Like-named read-outs stand apart in the source and are kept apart here.
Columns and labels:
[1] = target: biotinylated human Gal-3 (hGal-3) (Homo sapiens, UniProt P17931); assay: Competitive binding assay: biotinylated hGal-3 binding to microplate-adsorbed asialofetuin (ASF), spectrophotometric; conditions: hGal-3, read-out: IC50 (Gal-3 inhibition)
Outline: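 Serially diluted compounds competed with asialofetuin on the plate for biotinylated human Gal-3 during a 3 h incubation at 4° C. Streptavidin-peroxidase with ABTS gave the spectrophotometric signal. IC50 values were averaged over repeat runs.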

[2] = target: human Gal-1 (hGal-1) (Homo sapiens, UniProt P09382); assay: Competitive binding assay: biotinylated hGal-1 binding to microplate-adsorbed asialofetuin (ASF), spectrophotometric; conditions: hGal-1 binding to asialofetuin; Table 15; R and S epimers of selected Examples also listed; read-out: IC50 (Galectin-1 inhibition)
Outline: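 Spectrophotometric competition readout with ABTS after streptavidin-peroxidase (80 ng/mL, 1 h, 4 °C) detection of bound biotinylated hGal-1.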

Sequence of biotinylated human Gal-3 (hGal-3) (P17931 whole entry): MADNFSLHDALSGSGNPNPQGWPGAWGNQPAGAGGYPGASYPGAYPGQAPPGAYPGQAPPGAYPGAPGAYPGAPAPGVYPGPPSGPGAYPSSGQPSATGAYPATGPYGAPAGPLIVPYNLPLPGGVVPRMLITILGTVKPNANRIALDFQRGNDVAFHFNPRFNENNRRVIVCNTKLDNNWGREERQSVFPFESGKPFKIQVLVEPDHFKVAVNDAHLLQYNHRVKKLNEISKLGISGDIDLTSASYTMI
Sequence of human Gal-1 (hGal-1) (P09382 whole entry): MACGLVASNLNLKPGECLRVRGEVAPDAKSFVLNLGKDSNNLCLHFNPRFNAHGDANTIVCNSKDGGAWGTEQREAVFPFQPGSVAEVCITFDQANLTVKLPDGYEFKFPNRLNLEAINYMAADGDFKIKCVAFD

IC50 ([1]; Table 12) [µM] | IC50 [2] [µM] | IC50 ([1]; Table 10) [µM] | IC50 ([1]; Table 8) [µM] | SMILES
0.09 | 0.19 | – | – | CO[C@@H]1[C@@H](n2cc(-c3cc(F)c(F)c(F)c3)nn2)[C@@H](O)[C@@H](CO)O[C@H]1SC(C(=O)NC(C)C)C1(O)CCC(F)(F)CC1 (stereo partly drawn) [Example 2.44.251.I., 2-(4,4-Difluoro-1-hydroxycyclohexyl)-2-(((2S,3R,4S,5R,6R)-5-hydroxy-6-(hydroxymethyl)-3-methoxy-4-(4-(3,4,5-trifluorophenyl)-1H-1,2,3-triazol-1-yl)tetrahydro-2H-pyran-2-yl)thio)-N-isopropylacetamide]
0.32 | 0.83 | – | – | CO[C@@H]1[C@@H](n2cc(-c3cc(F)c(F)c(F)c3)nn2)[C@@H](O)[C@@H](CO)O[C@H]1SC(C(=O)NCCC(C)(C)C)C1(O)CCC(F)(F)CC1 (stereo partly drawn) [Example 2.44.252.I., 2-(4,4-Difluoro-1-hydroxycyclohexyl)-N-(3,3-dimethylbuty1)-2-(((2S,3R,4S,5R,6R)-5-hydroxy-6-(hydroxymethyl)-3-methoxy-4-(4-(3,4,5-trifluorophenyl)-1H-1,2,3-triazol-1-yl)tetrahydro-2H-pyran-2-yl)thio)acetamide]
0.13 | 0.3 | – | – | CO[C@@H]1[C@@H](n2cc(-c3cc(F)c(F)c(F)c3)nn2)[C@@H](O)[C@@H](CO)O[C@H]1SC(C(=O)NCC(F)(F)F)C1(O)CCC(F)(F)CC1 (stereo partly drawn) [Example 2.44.254.I., 2-(4,4-Difluoro-1-hydroxycyclohexyl)-2-(((2S,3R,4S,5R,6R)-5-hydroxy-6-(hydroxymethyl)-3-methoxy-4-(4-(3,4,5-trifluorophenyl)-1H-1,2,3-triazol-1-yl)tetrahydro-2H-pyran-2-yl)thio)-N-(2,2,2-trifluoroethyl)acetamide]

Second part, the molecule before the results:

SMILES | IC50 ([1]; Table 12) [µM] | IC50 [2] [µM] | IC50 ([1]; Table 10) [µM] | IC50 ([1]; Table 8) [µM]
CO[C@@H]1[C@@H](n2cc(-c3cc(F)c(F)c(F)c3)nn2)[C@@H](O)[C@@H](CO)O[C@H]1SC(C(=O)NC1CC(F)(F)C1)C1(O)CCC(F)(F)CC1 (stereo partly drawn) [Example 2.44.253.I., 2-(4,4-Difluoro-1-hydroxycyclohexyl)-N-(3,3-difluorocyclobutyl)-2-(((2S,3R,4S,5R,6R)-5-hydroxy-6-(hydroxymethyl)-3-methoxy-4-(4-(3,4,5-trifluorophenyl)-1H-1,2,3-triazol-1-yl)tetrahydro-2H-pyran-2-yl)thio)acetamide] | 0.16 | 0.67 | – | –
CCN(CC1CC(F)(F)C1)C(=O)C(S[C@@H]1O[C@H](CO)[C@H](O)[C@H](n2cc(-c3cc(F)c(F)c(F)c3)nn2)[C@H]1OC)C1(O)CCC(F)(F)CC1 (stereo partly shown) [Example 2.44.256.I.] | – | 0.13 | 0.05 | –
CCN(C(=O)C(S[C@@H]1O[C@H](CO)[C@H](O)[C@H](n2cc(-c3cc(F)c(F)c(F)c3)nn2)[C@H]1OC)C1(O)CCC(F)(F)CC1)C1CCOCC1 (stereo partly shown) [Example 2.44.257.I.] | – | 0.18 | 0.07 | –
CCN(C)C(=O)[C@H](S[C@@H]1O[C@H](CO)[C@H](O)[C@H](n2cc(-c3cc(F)c(F)c(F)c3)nn2)[C@H]1O)C1(O)CCN(S(C)(=O)=O)CC1 [Example 2.47.203R., (R)-2-(((2S,3R,4S,5R,6R)-3,5-Dihydroxy-6-(hydroxymethyl)-4-(4-(3,4,5-trifluorophenyl)-1H-1,2,3-triazol-1-yl)tetrahydro-2H-pyran-2-yl)thio)-N-ethyl-2-(4-hydroxy-1-(methylsulfonyl)piperidin-4-yl)-N-methylacetamide] | – | 33.9 | – | 6.77
CCN(C)C(=O)C(S[C@@H]1O[C@H](CO)[C@H](O)[C@H](n2cc(-c3cc(F)c(F)c(F)c3)nn2)[C@H]1O)C1(O)CCN(C(=O)NC2CC2)CC1 (stereo partly drawn) [Example 2.49.203., N-Cyclopropyl-4-(1-(((2S,3R,4S,5R,6R)-3,5-dihydroxy-6-(hydroxymethyl)-4-(4-(3,4,5-trifluorophenyl)-1H-1,2,3-triazol-1-yl)tetrahydro-2H-pyran-2-yl)thio)-2-(ethyl(methyl)amino)-2-oxoethyl)-4-hydroxypiperidine-1-carboxamide] | – | 0.07 | – | 0.05

Source: patent US12410208B2, “(2-acetamidyl)thio-beta-D-galactopyranoside derivatives” (Idorsia Pharmaceuticals Ltd, priority 2020, dated 2025)
